Measurements: patent US10414754B2, “Indolizine compounds, a process for their preparation and pharmaceutical compositions containing them” (LES LABORATOIRES SERVIER, priority 2013, dated 2019)
Where a name gives a salt, the structure may show the parent alone.

Tests used:
[1] = system: RS4;11 leukaemia tumour line; experiment: In vitro cytotoxicity (MTT) on RS4;11; assay type: cell-based; conditions: Homo sapiens; RS4;11 cells, 48 hours exposure
Experimental: The cytotoxicity studies were carried out on the RS4;11 leukaemia tumour line.
The cells are distributed onto microplates and exposed to the test compounds for 48 hours.
The cell viability is then quantified by a colorimetric assay, the Microculture Tetrazolium Assay (Cancer Res., 1987, 47, 939-942).

[2] = target: T1, Bcl-2 protein (histag-Bcl-2, UniProtKB P10415) (Homo sapiens, UniProt P10415); experiment: Inhibition of Bcl-2 by the fluorescence polarisation technique; assay type: binding; conditions: fluorescence polarisation, 2 hours incubation; read-out: IC50 (nM) Bcl-2 FP
T1 construct: His tag
T1 sequence (P10415 whole entry): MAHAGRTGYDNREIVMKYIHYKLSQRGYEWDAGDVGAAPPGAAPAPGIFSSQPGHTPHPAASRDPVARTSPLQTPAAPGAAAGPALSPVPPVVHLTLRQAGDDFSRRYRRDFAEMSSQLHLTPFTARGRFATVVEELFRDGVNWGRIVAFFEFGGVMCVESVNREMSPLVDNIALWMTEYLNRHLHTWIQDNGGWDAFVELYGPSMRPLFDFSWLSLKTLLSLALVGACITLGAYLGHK
Summary of the method: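 Fluorescence polarisation competition: His-tagged human Bcl-2 (2.50×10^−8 M final) was mixed with fluorescein-labelled peptide (1.00×10^−8 M final) and increasing compound concentrations. Buffer was 10 mM Hepes, 150 mM NaCl, 0.05% Tween20, pH 7.4. Polarisation was read after 2 h.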

SMILES | IC50 [2] [nM] | IC50 [1] [nM]
C[C@@H]1Cc2ccccc2CN1C(=O)c1cc2c(cc1-c1cc(C(=O)N(c3ccc(O)cc3)c3ccc(CN4CCCC(F)(F)C4)cc3)c3ccccn13)OCO2 [Example 30, N-{4-[(3,3-Difluoropiperidin-1-yl)methyl]phenyl}-N-(4-hydroxyphenyl)-3-(6-{[(3R)-3-methyl-3,4-dihydroisoquinolin-2(1H)-yl]carbonyl}-1,3-benzodioxol-5-yl)indolizine-1-carboxamide hydrochloride] | 10.4 | 52.3
O=C(c1ccc(Cl)cc1-c1cc(C(=O)N(c2ccc(O)cc2)c2ccc3c(ccn3CCN3CCOCC3)c2)c2n1CCCC2)N1CCc2ccccc2C1 [Example 4, 3-[5-Chloro-2-(3,4-dihydroisoquinolin-2(1H)-ylcarbonyl)phenyl]-N-(4-hydroxyphenyl)-N-{1-[2-(morpholin-4-yl)ethyl]-1H-indol-5-yl}-5,6,7,8-tetrahydro-indolizine-1-carboxamide] | 56.4 | 251
C[C@@H]1Cc2ccccc2CN1C(=O)c1ccc(F)cc1-c1cc(C(=O)N(c2ccc(O)cc2)c2ccc(F)cc2)c2n1CCNC2 [Example 9, 6-(5-Fluoro-2-{[(3R)-3-methyl-3,4-dihydroisoquinolin-2(1H)-yl]carbonyl}-phenyl)-N-(4-fluorophenyl)-N-(4-hydroxyphenyl)-1,2,3,4-tetrahydropyrrolo[1,2-a]-pyrazine-8-carboxamide hydrochloride] | 40.6 | 780
Cc1ccc(N(C(=O)c2cc(-c3cc(F)ccc3C(=O)N3Cc4ccccc4C[C@H]3C)n3c2CNCC3)c2ccc(O)cc2)cc1F [Example 10, 6-(5-Fluoro-2-{[(3R)-3-methyl-3,4-dihydroisoquinolin-2(1H)-yl]-carbonyl}phenyl)-N-(3-fluoro-4-methylphenyl)-N-(4-hydroxyphenyl)-1,2,3,4-tetrahydropyrrolo[1,2-a]pyrazine-8-carboxamide hydrochloride] | 24.7 | 439
C[C@@H]1Cc2ccccc2CN1C(=O)c1ccc(Cl)cc1-c1cc(C(=O)N(c2ccc(O)cc2)c2ccc3c(ccn3C)c2)c2n1CCN(C)C2 [Example 7, 6-(5-Chloro-2-{[(3R)-3-methyl-3,4-dihydroisoquinolin-2(1H)-yl]-carbonyl}phenyl]-N-(4-hydroxyphenyl)-2-methyl-N-(1-methyl-1H-indol-5-yl)-1,2,3,4-tetrahydropyrrolo[1,2-a]pyrazine-8-carboxamide] | 46.4 | 108

The next lines start with results.

IC50 [2] [nM] | SMILES | IC50 [1] [nM]
35.8 | CN(C(=O)c1cc(-c2cc3c(cc2C(=O)N2CCc4ccccc4C2)OCO3)n2ccccc12)c1ccc(O)cc1 [Example 83, 3-[6-(3,4-Dihydroisoquinolin-2(1H)-ylcarbonyl)-1,3-benzodioxol-5-yl]-N-(4-hydroxyphenyl)-N-methylindolizine-1-carboxamide] | 1500
2.9 | NCC[C@@H]1Cc2ccccc2CN1C(=O)c1cc2c(cc1-c1cc(C(=O)N(c3ccccc3)c3ccc(O)cc3)c3n1CCCC3)OCO2 [Example 37, 3-(6-{[(3S)-3-(2-Aminoethyl)-3,4-dihydroisoquinolin-2(1H)-yl]carbonyl}-1,3-benzodioxol-5-yl)-N-(4-hydroxyphenyl)-N-phenyl-5,6,7,8-tetrahydroindolizine-1-carboxamide hydrochloride] | 24.7
77.6 | CCCCN(C(=O)c1cc(-c2cc3c(cc2C(=O)N2CCc4ccccc4C2)OCO3)n2c1CCCC2)c1ccc(O)cc1 [Example 76, N-Butyl-3-[6-(3,4-dihydroisoquinolin-2(1H)-ylcarbonyl)-1,3-benzo-dioxol-5-yl]-N-(4-hydroxyphenyl)-5,6,7,8-tetrahydroindolizine-1-carboxamide] | 1630
4.8 | C[C@@H]1Cc2ccccc2CN1C(=O)c1cc2c(cc1-c1cc(C(=O)N(c3ccc(O)cc3)c3ccn4ccnc4c3)c3ccccn13)OCO2 [Example 51, N-(4-Hydroxyphenyl)-N-(imidazo[1,2-a]pyridin-7-yl)-3-(6-{[(3R)-3-methyl-3,4-dihydroisoquinolin-2(1H)-yl]carbonyl}-1,3-benzodioxol-5-yl)indolizine-1-carboxamide hydrochloride] | 68.8
